Results as given in patent publication US6689773B2, “Uracil substituted phenyl sulfamoyl carboxamides” (BASF Aktiengesellschaft, priority 2000, dated 2004).

Legend:
Type in all cases: in vivo
[1] = system: GLXMA, Soybean, Glycine max, (L.) Merr.; assay: Postemergence herbicidal evaluation (Example 147); conditions: rating scale 0-9, two to three weeks after treatment
Summary of the method: (§1)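 First, seedlings were raised for about two weeks. Next, they were sprayed at 40 psi with compound (about 0.016 to 0.032 kg/ha) in acetone/water 80/20 containing 1.0% methylated seed oil. Finally, after two to three greenhouse weeks, overall appearance versus control was rated 0-9, averaging repeat tests.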

[2] = system: ECHCG, Barnyardgrass, Echinochloa crusgalli, (L.)Beau; assay: Postemergence herbicidal evaluation (Example 147); conditions: rating scale 0-9, two to three weeks after treatment
Summary of the method: as §1

[3] = system: ABUTH, Velvetleaf, Abutilon theophrasti, Medic.; assay: Postemergence herbicidal evaluation (Example 147); conditions: rating scale 0-9, two to three weeks after treatment
Summary of the method: as §1

[4] = system: DIGSA, Crabgrass, (Hairy) L, Digitaria sanguinalis, (L)Scop; assay: Postemergence herbicidal evaluation (Example 147); conditions: rating scale 0-9, two to three weeks after treatment
Summary of the method: as §1

[5] = system: XANST, Cocklebur, Xanthium strumariam; assay: Postemergence herbicidal evaluation (Example 147); conditions: rating scale 0-9, two to three weeks after treatment
Summary of the method: as §1

[6] = system: CHEAL, Lambsquarters, Chenopodium album, L. Common; assay: Postemergence herbicidal evaluation (Example 147); conditions: rating scale 0-9, two to three weeks after treatment
Summary of the method: as §1

[7] = system: ZEAMX, Field corn, Zea mays L.; assay: Postemergence herbicidal evaluation (Example 147); conditions: rating scale 0-9, two to three weeks after treatment
Summary of the method: as §1

[8] = system: TRZAW, Winter wheat, Tritium Aestivum, L. (Winter); assay: Postemergence herbicidal evaluation (Example 147); conditions: rating scale 0-9, two to three weeks after treatment
Summary of the method: as §1

[9] = system: ALOMY, Blackgrass, Alopecurus myosuroides; assay: Postemergence herbicidal evaluation (Example 147); conditions: rating scale 0-9, two to three weeks after treatment
Summary of the method: as §1

[10] = system: SETVI, Green foxtail, Setaria viridis, (L.)Beau; assay: Postemergence herbicidal evaluation (Example 147); conditions: rating scale 0-9, two to three weeks after treatment
Summary of the method: as §1

[11] = system: IPOHE, Morningglory, Ivyleaf, Ipomoea hederacea, (L)Jacq.; assay: Postemergence herbicidal evaluation (Example 147); conditions: rating scale 0-9, two to three weeks after treatment
Summary of the method: as §1

[12] = system: AMBEL, Ragweed, Common, Ambrosia artemiisifolia, L.; assay: Postemergence herbicidal evaluation (Example 147); conditions: rating scale 0-9, two to three weeks after treatment
Summary of the method: as §1

[13] = system: GLXMA, Soybean, Glycine max, (L.) Merr.; assay: Preemergence herbicidal evaluation (Example 148); conditions: rating scale 0-9, two to four weeks after treatment
Summary of the method: (§2)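 Following sowing, cups received a soil spray of the compound dissolved in aqueous acetone, dosed to about 0.125 to 0.250 kg per hectare. Growth continued in the greenhouse under routine care before visual scoring at two to four weeks.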

[14] = system: ECHCG, Barnyardgrass, Echinochloa crusgalli, (L.)Beau; assay: Preemergence herbicidal evaluation (Example 148); conditions: rating scale 0-9, two to four weeks after treatment
Summary of the method: as §2

[15] = system: ABUTH, Velvetleaf, Abutilon theophrasti, Medic.; assay: Preemergence herbicidal evaluation (Example 148); conditions: rating scale 0-9, two to four weeks after treatment
Summary of the method: as §2

[16] = system: DIGSA, Crabgrass, (Hairy) L, Digitaria sanguinalis, (L)Scop; assay: Preemergence herbicidal evaluation (Example 148); conditions: rating scale 0-9, two to four weeks after treatment
Summary of the method: as §2

[17] = system: XANST, Cocklebur, Xanthium strumariam; assay: Preemergence herbicidal evaluation (Example 148); conditions: rating scale 0-9, two to four weeks after treatment
Summary of the method: as §2

[18] = system: CHEAL, Lambsquarters, Chenopodium album, L. Common; assay: Preemergence herbicidal evaluation (Example 148); conditions: rating scale 0-9, two to four weeks after treatment
Summary of the method: as §2

[19] = system: ZEAMX, Field corn, Zea mays L.; assay: Preemergence herbicidal evaluation (Example 148); conditions: rating scale 0-9, two to four weeks after treatment
Summary of the method: as §2

[20] = system: TRZAW, Winter wheat, Tritium Aestivum, L. (Winter); assay: Preemergence herbicidal evaluation (Example 148); conditions: rating scale 0-9, two to four weeks after treatment
Summary of the method: as §2

[21] = system: ALOMY, Blackgrass, Alopecurus myosuroides; assay: Preemergence herbicidal evaluation (Example 148); conditions: rating scale 0-9, two to four weeks after treatment
Summary of the method: as §2

[22] = system: SETVI, Green foxtail, Setaria viridis, (L.)Beau; assay: Preemergence herbicidal evaluation (Example 148); conditions: rating scale 0-9, two to four weeks after treatment
Summary of the method: as §2

[23] = system: IPOHE, Morningglory, Ivyleaf, Ipomoea hederacea, (L)Jacq.; assay: Preemergence herbicidal evaluation (Example 148); conditions: rating scale 0-9, two to four weeks after treatment
Summary of the method: as §2

[24] = system: AMBEL, Ragweed, Common, Ambrosia artemiisifolia, L.; assay: Preemergence herbicidal evaluation (Example 148); conditions: rating scale 0-9, two to four weeks after treatment
Summary of the method: as §2

SMILES: CC(C)N(C)S(=O)(=O)NC(=O)c1cc(-n2c(=O)cc(C(F)(F)F)n(N)c2=O)c(F)cc1Cl [Example 76]
- Postemergence herbicidal rating GLXMA ([1]; rate 0.016 kg/ha): 7.5
- Postemergence herbicidal rating GLXMA ([1]; rate 0.032 kg/ha): 7.5
- Postemergence herbicidal rating ECHCG ([2]; rate 0.016 kg/ha): 5.0
- Postemergence herbicidal rating ECHCG ([2]; rate 0.032 kg/ha): 6.0
- Postemergence herbicidal rating ABUTH ([3]; rate 0.016 kg/ha): 9.0
- Postemergence herbicidal rating ABUTH ([3]; rate 0.032 kg/ha): 9.0
- Postemergence herbicidal rating DIGSA ([4]; rate 0.016 kg/ha): 3.0
- Postemergence herbicidal rating DIGSA ([4]; rate 0.032 kg/ha): 4.0
- Postemergence herbicidal rating XANST ([5]; rate 0.016 kg/ha): 9.0
- Postemergence herbicidal rating XANST ([5]; rate 0.032 kg/ha): 9.0
- Postemergence herbicidal rating CHEAL ([6]; rate 0.016 kg/ha): 6.0
- Postemergence herbicidal rating CHEAL ([6]; rate 0.032 kg/ha): 6.0
- Postemergence herbicidal rating ZEAMX ([7]; rate 0.016 kg/ha): 5.5
- Postemergence herbicidal rating ZEAMX ([7]; rate 0.032 kg/ha): 6.5
- Postemergence herbicidal rating TRZAW ([8]; rate 0.016 kg/ha): 5.0
- Postemergence herbicidal rating TRZAW ([8]; rate 0.032 kg/ha): 6.0
- Postemergence herbicidal rating ALMOY ([9]; rate 0.016 kg/ha): 1.0
- Postemergence herbicidal rating ALMOY ([9]; rate 0.032 kg/ha): 1.0
- Postemergence herbicidal rating SETVI ([10]; rate 0.016 kg/ha): 5.0
- Postemergence herbicidal rating SETVI ([10]; rate 0.032 kg/ha): 6.0
- Postemergence herbicidal rating IPOHE ([11]; rate 0.016 kg/ha): 9.0
- Postemergence herbicidal rating IPOHE ([11]; rate 0.032 kg/ha): 9.0
- Postemergence herbicidal rating AMBEL ([12]; rate 0.016 kg/ha): 8.0
- Postemergence herbicidal rating AMBEL ([12]; rate 0.032 kg/ha): 8.0
- Preemergence herbicidal rating GLXMA ([13]; rate 0.125 kg/ha): 1.0
- Preemergence herbicidal rating GLXMA ([13]; rate 0.25 kg/ha): 3.0
- Preemergence herbicidal rating ECHCG ([14]; rate 0.125 kg/ha): 1.0
- Preemergence herbicidal rating ECHCG ([14]; rate 0.25 kg/ha): 2.0
- Preemergence herbicidal rating ABUTH ([15]; rate 0.125 kg/ha): 9.0
- Preemergence herbicidal rating ABUTH ([15]; rate 0.25 kg/ha): 9.0
- Preemergence herbicidal rating DIGSA ([16]; rate 0.125 kg/ha): 2.0
- Preemergence herbicidal rating DIGSA ([16]; rate 0.25 kg/ha): 3.0
- Preemergence herbicidal rating XANST ([17]; rate 0.125 kg/ha): 3.0
- Preemergence herbicidal rating XANST ([17]; rate 0.25 kg/ha): 5.0
- Preemergence herbicidal rating CHEAL ([18]; rate 0.125 kg/ha): 8.0
- Preemergence herbicidal rating CHEAL ([18]; rate 0.25 kg/ha): 9.0
- Preemergence herbicidal rating ZEAMX ([19]; rate 0.125 kg/ha): 1.0
- Preemergence herbicidal rating ZEAMX ([19]; rate 0.25 kg/ha): 1.0
- Preemergence herbicidal rating TRZAW ([20]; rate 0.125 kg/ha): 0.0
- Preemergence herbicidal rating TRZAW ([20]; rate 0.25 kg/ha): 1.0
- Preemergence herbicidal rating ALMOY ([21]; rate 0.125 kg/ha): 0.0
- Preemergence herbicidal rating ALMOY ([21]; rate 0.25 kg/ha): 2.0
- Preemergence herbicidal rating SETVI ([22]; rate 0.125 kg/ha): 1.0
- Preemergence herbicidal rating SETVI ([22]; rate 0.25 kg/ha): 2.0
- Preemergence herbicidal rating IPOHE ([23]; rate 0.125 kg/ha): 5.0
- Preemergence herbicidal rating IPOHE ([23]; rate 0.25 kg/ha): 9.0
- Preemergence herbicidal rating AMBEL ([24]; rate 0.125 kg/ha): 8.0
- Preemergence herbicidal rating AMBEL ([24]; rate 0.25 kg/ha): 9.0

SMILES: CCCN(CC)S(=O)(=O)NC(=O)c1cc(-n2c(=O)cc(C(F)(F)F)n(C)c2=O)c(F)cc1Cl [Example 62]
- Postemergence herbicidal rating GLXMA ([1]; rate 0.016 kg/ha): 8.0
- Postemergence herbicidal rating GLXMA ([1]; rate 0.032 kg/ha): 8.0
- Postemergence herbicidal rating ECHCG ([2]; rate 0.016 kg/ha): 6.0
- Postemergence herbicidal rating ECHCG ([2]; rate 0.032 kg/ha): 7.0
- Postemergence herbicidal rating ABUTH ([3]; rate 0.016 kg/ha): 9.0
- Postemergence herbicidal rating ABUTH ([3]; rate 0.032 kg/ha): 9.0
- Postemergence herbicidal rating DIGSA ([4]; rate 0.016 kg/ha): 5.0
- Postemergence herbicidal rating DIGSA ([4]; rate 0.032 kg/ha): 5.0
- Postemergence herbicidal rating XANST ([5]; rate 0.016 kg/ha): 9.0
- Postemergence herbicidal rating XANST ([5]; rate 0.032 kg/ha): 9.0
- Postemergence herbicidal rating CHEAL ([6]; rate 0.016 kg/ha): 7.0
- Postemergence herbicidal rating CHEAL ([6]; rate 0.032 kg/ha): 8.0
- Postemergence herbicidal rating ZEAMX ([7]; rate 0.016 kg/ha): 6.5
- Postemergence herbicidal rating ZEAMX ([7]; rate 0.032 kg/ha): 6.5
- Postemergence herbicidal rating TRZAW ([8]; rate 0.016 kg/ha): 5.5
- Postemergence herbicidal rating TRZAW ([8]; rate 0.032 kg/ha): 6.5
- Postemergence herbicidal rating ALMOY ([9]; rate 0.016 kg/ha): 2.0
- Postemergence herbicidal rating ALMOY ([9]; rate 0.032 kg/ha): 2.0
- Postemergence herbicidal rating SETVI ([10]; rate 0.016 kg/ha): 6.0
- Postemergence herbicidal rating SETVI ([10]; rate 0.032 kg/ha): 6.0
- Postemergence herbicidal rating IPOHE ([11]; rate 0.016 kg/ha): 9.0
- Postemergence herbicidal rating IPOHE ([11]; rate 0.032 kg/ha): 9.0
- Postemergence herbicidal rating AMBEL ([12]; rate 0.016 kg/ha): 9.0
- Postemergence herbicidal rating AMBEL ([12]; rate 0.032 kg/ha): 9.0
- Preemergence herbicidal rating GLXMA ([13]; rate 0.125 kg/ha): 5.0
- Preemergence herbicidal rating GLXMA ([13]; rate 0.25 kg/ha): 9.0
- Preemergence herbicidal rating ECHCG ([14]; rate 0.125 kg/ha): 3.0
- Preemergence herbicidal rating ECHCG ([14]; rate 0.25 kg/ha): 6.0
- Preemergence herbicidal rating ABUTH ([15]; rate 0.125 kg/ha): 9.0
- Preemergence herbicidal rating ABUTH ([15]; rate 0.25 kg/ha): 9.0
- Preemergence herbicidal rating DIGSA ([16]; rate 0.125 kg/ha): 5.0
- Preemergence herbicidal rating DIGSA ([16]; rate 0.25 kg/ha): 7.0
- Preemergence herbicidal rating XANST ([17]; rate 0.125 kg/ha): 9.0
- Preemergence herbicidal rating XANST ([17]; rate 0.25 kg/ha): 9.0
- Preemergence herbicidal rating CHEAL ([18]; rate 0.125 kg/ha): 9.0
- Preemergence herbicidal rating CHEAL ([18]; rate 0.25 kg/ha): 9.0
- Preemergence herbicidal rating ZEAMX ([19]; rate 0.125 kg/ha): 1.0
- Preemergence herbicidal rating ZEAMX ([19]; rate 0.25 kg/ha): 1.0
- Preemergence herbicidal rating TRZAW ([20]; rate 0.125 kg/ha): 3.0
- Preemergence herbicidal rating TRZAW ([20]; rate 0.25 kg/ha): 5.0
- Preemergence herbicidal rating ALMOY ([21]; rate 0.125 kg/ha): 0.0
- Preemergence herbicidal rating ALMOY ([21]; rate 0.25 kg/ha): 0.0
- Preemergence herbicidal rating SETVI ([22]; rate 0.125 kg/ha): 3.0
- Preemergence herbicidal rating SETVI ([22]; rate 0.25 kg/ha): 7.0
- Preemergence herbicidal rating IPOHE ([23]; rate 0.125 kg/ha): 9.0
- Preemergence herbicidal rating IPOHE ([23]; rate 0.25 kg/ha): 9.0
- Preemergence herbicidal rating AMBEL ([24]; rate 0.125 kg/ha): 9.0
- Preemergence herbicidal rating AMBEL ([24]; rate 0.25 kg/ha): 9.0
